This note sets out measurements from paper PMC8213057, “Targeting ALK2: An Open Science Approach to Developing Therapeutics for the Treatment of Diffuse Intrinsic Pontine Glioma” (Journal of Medicinal Chemistry, 2020).

Each structure is given as a SMILES string.

In assay [1] the target is DMPK2 (Homo sapiens, UniProt Q6DT37). The assay is described as follows: biochemical. As to conditions: read-out: % enzyme activity, 1 μM; Run 1, Run 2.
The target in assay [2] is AKT3 (Homo sapiens, UniProt Q9Y243). The assay is described as follows: biochemical. The note with it: read-out: % enzyme activity, 1 μM; Run 1, Run 2.
The target in assay [3] is DYRK1/DYRK1A (Homo sapiens, UniProt Q13627). The assay is described as follows: biochemical. As to conditions: read-out: % enzyme activity, 1 μM; Run 1, Run 2.
Assay [4] addresses MLCK2/MYLK2 (Homo sapiens, UniProt Q9H1R3). As to conditions: 1 μM; Run 1, Run 2.
The target of assay [5] is T1, SIK2 (Homo sapiens, UniProt Q9H0K1).
T1 construct: purchased Reaction Biology Corporation
The assay is described as follows: 375-member kinase panel. The assay is classed as biochemical. The note with it: Run 1, Run 2; for % enzyme activity: 1 μM; for remaining activity at 1 µM: read-out: % enzyme activity, 1 μM.

Assay [6] deals with BTK (Homo sapiens, UniProt Q06187). As to conditions: 1 μM; Run 1, Run 2.
The target in assay [7] is CDK2/cyclin E (Homo sapiens, UniProt P24941). The assay is described as follows: biochemical. The note with it: read-out: % enzyme activity, 1 μM; Run 1, Run 2.
Assay [8] concerns the target JNK3 (Homo sapiens, UniProt P53779). The assay is described as follows: biochemical. As to conditions: read-out: % enzyme activity, 1 μM; Run 1, Run 2.
The target in assay [9] is CLK2 (Homo sapiens, UniProt P49760). The assay is described as follows: biochemical. The note with it: read-out: % enzyme activity, 1 μM; Run 1, Run 2.
In assay [10] the target is T2, EPHB1 (Homo sapiens, UniProt P54762).
T2 sequence (P54762 18-984): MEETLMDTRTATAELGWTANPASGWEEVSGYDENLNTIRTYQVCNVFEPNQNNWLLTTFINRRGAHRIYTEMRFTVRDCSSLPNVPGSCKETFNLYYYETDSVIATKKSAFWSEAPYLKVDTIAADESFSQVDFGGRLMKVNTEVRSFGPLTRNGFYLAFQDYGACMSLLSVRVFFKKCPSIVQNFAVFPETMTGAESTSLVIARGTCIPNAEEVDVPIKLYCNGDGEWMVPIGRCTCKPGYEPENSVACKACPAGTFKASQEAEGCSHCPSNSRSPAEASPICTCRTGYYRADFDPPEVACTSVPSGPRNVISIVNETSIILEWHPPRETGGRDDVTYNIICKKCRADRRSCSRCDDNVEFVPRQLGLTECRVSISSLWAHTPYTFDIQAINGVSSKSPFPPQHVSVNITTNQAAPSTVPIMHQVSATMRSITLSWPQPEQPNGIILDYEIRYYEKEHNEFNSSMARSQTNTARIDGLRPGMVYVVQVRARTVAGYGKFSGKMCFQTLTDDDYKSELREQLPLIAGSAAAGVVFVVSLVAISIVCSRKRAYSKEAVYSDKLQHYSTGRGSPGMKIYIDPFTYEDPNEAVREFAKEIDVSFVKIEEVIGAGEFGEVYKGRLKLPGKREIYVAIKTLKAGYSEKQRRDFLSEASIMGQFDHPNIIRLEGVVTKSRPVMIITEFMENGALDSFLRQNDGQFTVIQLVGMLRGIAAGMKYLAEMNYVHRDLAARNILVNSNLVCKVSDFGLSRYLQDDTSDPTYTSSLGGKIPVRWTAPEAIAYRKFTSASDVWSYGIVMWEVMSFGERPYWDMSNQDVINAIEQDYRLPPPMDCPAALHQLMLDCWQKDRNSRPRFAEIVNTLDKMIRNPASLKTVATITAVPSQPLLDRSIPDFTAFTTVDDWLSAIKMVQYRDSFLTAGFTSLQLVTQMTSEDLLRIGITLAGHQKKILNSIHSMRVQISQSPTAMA
The assay is described as follows: biochemical. As to conditions: read-out: % enzyme activity, 1 μM; Run 1, Run 2.

For assay [11], the target named is T3, GCK/MAP4K2 (Homo sapiens, UniProt Q12851).
T3 sequence (Q12851 1-820): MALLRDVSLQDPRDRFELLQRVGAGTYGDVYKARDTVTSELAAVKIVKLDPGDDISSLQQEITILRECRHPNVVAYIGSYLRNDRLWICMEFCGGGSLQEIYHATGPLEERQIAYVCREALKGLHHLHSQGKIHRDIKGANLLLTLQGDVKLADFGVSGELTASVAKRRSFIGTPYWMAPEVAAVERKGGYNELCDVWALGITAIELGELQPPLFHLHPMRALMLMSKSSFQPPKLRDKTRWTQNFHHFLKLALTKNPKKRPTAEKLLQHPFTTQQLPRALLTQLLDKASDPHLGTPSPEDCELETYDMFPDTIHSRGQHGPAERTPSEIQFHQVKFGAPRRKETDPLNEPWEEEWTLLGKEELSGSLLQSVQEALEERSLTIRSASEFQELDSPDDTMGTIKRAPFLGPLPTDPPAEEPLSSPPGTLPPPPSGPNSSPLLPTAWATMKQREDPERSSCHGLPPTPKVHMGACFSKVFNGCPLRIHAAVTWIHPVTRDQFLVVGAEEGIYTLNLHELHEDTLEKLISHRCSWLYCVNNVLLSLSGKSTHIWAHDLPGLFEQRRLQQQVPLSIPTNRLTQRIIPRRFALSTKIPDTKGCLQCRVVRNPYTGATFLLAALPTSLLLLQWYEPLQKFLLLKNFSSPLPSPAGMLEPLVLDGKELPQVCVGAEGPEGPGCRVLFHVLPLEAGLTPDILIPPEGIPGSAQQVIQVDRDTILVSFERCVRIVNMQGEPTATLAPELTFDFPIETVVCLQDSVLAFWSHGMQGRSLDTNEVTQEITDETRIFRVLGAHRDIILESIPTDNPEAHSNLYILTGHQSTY
The assay is described as follows: biochemical. As to conditions: read-out: % enzyme activity, 1 μM; Run 1, Run 2.

In assay [12] the target is MAPKAPK2 (Homo sapiens, UniProt P49137). The note with it: 1 μM; Run 1, Run 2.
Assay [13] addresses CK2a (Homo sapiens, UniProt P68400). The assay is described as follows: biochemical. The note with it: read-out: % enzyme activity, 1 μM; Run 1, Run 2.

T1 sequence (Q9H0K1 whole entry): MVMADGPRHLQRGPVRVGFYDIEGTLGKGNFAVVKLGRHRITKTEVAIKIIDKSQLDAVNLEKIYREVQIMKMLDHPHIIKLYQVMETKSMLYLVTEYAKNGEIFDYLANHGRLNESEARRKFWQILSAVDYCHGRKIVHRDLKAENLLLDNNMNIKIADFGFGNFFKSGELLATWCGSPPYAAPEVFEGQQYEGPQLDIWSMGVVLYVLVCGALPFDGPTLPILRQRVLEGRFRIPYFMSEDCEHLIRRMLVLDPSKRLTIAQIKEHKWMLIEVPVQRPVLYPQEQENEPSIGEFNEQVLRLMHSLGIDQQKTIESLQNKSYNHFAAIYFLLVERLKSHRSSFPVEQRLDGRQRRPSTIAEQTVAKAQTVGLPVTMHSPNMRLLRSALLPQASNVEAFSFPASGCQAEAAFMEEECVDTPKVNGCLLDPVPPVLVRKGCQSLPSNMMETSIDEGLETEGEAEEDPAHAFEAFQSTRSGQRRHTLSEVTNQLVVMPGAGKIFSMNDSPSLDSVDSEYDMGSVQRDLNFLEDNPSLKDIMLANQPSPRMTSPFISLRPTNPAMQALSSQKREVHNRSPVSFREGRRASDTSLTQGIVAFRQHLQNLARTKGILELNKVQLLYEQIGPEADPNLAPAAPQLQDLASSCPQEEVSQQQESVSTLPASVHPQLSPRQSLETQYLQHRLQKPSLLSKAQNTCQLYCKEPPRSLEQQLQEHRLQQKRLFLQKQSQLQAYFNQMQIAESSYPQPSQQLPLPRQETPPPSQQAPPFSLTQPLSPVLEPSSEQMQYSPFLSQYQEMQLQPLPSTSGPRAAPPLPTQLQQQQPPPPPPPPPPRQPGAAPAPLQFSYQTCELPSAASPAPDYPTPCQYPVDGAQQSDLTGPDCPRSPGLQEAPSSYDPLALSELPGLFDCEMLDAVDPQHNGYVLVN
MLCK2/MYLK2, sequence (Q9H1R3 whole entry): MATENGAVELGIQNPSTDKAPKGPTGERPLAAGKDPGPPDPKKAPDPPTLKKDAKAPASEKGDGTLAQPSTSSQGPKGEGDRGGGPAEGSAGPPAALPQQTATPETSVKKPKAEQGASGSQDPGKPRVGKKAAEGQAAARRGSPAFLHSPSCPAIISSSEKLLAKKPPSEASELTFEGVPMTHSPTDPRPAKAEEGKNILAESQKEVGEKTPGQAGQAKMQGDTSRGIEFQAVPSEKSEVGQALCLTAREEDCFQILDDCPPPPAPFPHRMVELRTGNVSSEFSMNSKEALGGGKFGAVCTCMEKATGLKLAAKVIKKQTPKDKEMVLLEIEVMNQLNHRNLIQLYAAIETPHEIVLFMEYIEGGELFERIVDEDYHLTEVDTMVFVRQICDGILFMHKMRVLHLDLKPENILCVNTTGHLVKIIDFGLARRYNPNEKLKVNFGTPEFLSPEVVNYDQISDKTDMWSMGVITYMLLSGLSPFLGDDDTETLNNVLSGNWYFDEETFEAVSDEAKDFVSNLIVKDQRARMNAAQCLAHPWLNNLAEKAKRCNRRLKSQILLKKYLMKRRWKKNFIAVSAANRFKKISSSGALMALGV
CLK2, sequence (P49760 whole entry): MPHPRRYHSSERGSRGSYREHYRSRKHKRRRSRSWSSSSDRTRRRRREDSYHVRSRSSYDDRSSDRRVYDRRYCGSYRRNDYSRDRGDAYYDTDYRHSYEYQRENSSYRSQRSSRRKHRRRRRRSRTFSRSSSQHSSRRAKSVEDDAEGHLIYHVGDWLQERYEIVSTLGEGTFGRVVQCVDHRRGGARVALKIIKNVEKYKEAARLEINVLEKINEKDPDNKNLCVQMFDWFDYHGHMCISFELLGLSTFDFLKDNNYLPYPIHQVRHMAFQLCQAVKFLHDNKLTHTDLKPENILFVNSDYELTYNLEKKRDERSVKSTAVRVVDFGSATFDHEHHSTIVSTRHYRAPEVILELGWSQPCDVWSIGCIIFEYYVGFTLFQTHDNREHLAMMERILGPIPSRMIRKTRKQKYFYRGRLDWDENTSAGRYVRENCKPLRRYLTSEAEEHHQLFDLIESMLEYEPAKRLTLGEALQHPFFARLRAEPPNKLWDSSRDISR
CK2a, sequence (P68400 whole entry): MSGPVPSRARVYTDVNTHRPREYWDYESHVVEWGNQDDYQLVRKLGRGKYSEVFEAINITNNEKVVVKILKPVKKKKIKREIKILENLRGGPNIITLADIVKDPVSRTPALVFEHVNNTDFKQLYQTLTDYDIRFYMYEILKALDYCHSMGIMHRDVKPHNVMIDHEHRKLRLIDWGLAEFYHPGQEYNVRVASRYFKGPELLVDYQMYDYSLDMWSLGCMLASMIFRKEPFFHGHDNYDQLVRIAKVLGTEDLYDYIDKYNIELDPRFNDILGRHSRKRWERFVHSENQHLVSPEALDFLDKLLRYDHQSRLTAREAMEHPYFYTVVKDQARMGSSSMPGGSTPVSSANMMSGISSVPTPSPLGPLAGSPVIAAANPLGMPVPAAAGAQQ
MAPKAPK2, sequence (P49137 whole entry): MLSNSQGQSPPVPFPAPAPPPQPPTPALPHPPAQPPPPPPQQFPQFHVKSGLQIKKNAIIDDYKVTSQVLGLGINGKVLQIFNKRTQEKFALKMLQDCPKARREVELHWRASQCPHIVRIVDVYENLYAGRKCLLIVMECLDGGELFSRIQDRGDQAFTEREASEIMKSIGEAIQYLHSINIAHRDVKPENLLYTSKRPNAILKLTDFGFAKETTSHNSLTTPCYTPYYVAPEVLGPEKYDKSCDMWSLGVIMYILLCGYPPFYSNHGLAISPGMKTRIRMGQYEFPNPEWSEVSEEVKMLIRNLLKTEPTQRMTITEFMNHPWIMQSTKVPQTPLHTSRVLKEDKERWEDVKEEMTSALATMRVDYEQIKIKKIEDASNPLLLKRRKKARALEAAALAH
JNK3, sequence (P53779 whole entry): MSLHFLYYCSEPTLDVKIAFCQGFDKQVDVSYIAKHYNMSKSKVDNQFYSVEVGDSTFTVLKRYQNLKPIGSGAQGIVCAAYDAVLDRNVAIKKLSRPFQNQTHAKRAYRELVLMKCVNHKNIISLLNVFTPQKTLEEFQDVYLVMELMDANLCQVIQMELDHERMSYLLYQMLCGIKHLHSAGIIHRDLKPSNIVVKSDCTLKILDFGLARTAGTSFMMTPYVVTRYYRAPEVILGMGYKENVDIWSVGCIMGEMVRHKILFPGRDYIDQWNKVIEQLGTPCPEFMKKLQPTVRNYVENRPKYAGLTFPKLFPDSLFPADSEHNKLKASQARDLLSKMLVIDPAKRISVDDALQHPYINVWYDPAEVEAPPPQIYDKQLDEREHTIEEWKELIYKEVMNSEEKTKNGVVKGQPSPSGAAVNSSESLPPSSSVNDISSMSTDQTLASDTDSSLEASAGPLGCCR
DMPK2, sequence (Q6DT37 whole entry): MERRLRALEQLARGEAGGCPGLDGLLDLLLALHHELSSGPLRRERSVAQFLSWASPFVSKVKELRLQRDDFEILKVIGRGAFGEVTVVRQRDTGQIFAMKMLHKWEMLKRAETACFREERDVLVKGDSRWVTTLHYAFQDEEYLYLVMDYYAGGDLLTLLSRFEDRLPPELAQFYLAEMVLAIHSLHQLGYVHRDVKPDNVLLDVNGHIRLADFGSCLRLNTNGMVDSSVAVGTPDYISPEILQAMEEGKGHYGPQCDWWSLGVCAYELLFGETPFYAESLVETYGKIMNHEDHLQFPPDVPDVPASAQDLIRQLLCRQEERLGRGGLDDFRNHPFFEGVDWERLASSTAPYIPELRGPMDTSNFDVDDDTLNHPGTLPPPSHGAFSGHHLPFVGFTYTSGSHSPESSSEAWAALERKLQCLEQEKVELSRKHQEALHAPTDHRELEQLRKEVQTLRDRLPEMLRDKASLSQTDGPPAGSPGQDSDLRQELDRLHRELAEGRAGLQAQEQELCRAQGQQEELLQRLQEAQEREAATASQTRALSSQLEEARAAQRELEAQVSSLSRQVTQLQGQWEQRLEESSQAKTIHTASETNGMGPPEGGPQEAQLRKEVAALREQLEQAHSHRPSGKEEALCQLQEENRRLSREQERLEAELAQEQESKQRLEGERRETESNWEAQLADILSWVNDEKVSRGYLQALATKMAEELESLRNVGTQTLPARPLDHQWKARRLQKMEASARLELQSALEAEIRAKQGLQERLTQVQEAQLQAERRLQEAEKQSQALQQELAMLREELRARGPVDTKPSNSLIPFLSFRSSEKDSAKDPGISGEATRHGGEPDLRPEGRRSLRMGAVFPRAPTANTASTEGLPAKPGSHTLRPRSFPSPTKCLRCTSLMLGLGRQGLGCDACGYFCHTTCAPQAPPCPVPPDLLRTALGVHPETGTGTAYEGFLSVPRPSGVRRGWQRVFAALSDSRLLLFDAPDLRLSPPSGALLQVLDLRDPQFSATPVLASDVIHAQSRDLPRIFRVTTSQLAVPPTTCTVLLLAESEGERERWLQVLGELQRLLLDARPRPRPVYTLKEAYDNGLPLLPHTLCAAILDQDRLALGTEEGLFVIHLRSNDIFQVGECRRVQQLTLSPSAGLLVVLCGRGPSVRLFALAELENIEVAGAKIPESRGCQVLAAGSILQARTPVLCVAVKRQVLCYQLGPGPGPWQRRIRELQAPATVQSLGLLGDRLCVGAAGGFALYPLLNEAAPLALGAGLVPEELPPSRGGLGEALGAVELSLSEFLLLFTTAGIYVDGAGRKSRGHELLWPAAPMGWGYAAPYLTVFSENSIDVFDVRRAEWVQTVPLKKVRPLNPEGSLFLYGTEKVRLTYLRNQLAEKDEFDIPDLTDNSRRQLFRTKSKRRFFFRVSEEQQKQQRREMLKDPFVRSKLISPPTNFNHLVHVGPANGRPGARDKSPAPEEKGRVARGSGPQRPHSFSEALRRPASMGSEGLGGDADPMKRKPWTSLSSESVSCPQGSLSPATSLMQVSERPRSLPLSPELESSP

In the case of `COc1cc(-c2cncc(-c3ccc(N4C[C@@H](C)N(C)[C@@H](C)C4)cc3)c2C)cc(F)c1C(N)=O` [Compound 26c, 2-Fluoro-6-methoxy-4-(4-methyl-5-(4-((3R,5S)-3,4,5-trimethylpiperazin-1-yl)phenyl)pyridin-3-yl)benzamide], the remaining activity at 1 µM in assay [1] is 87.5%; in [2] it was 98.7%; in assay [3], 62.4%; in assay [5], 43.9%; in assay [7], 102%; in assay [8], 104%. Also, the remaining activity at 1 µM worked out at 90.3% in assay [9], 92.6% in assay [10], 75.4% in [11] and 87.2% in assay [13]. Moreover, the “% enzyme activity” value in assay [4] is 82.74%; in assay [5], 43.50%; in [6] it was 94.07%; in [12], 93.08%.

As to `COc1cc(-c2cncc(-c3ccc(N4CCN(C)CC4)cc3)c2C)cc(F)c1C(N)=O` [Compound 26a, 2-Fluoro-6-methoxy-4-(4-methyl-5-(4-(4-methylpiperazin-1-yl)phenyl)pyridin-3-yl)benzamide], the remaining activity at 1 µM in assay [1] came out at 83.8%; in assay [2], 95%; in assay [3] it was 43.3%; in [5] it was 32%; in assay [7], 105%; in assay [8], 96.4%. Besides, the remaining activity at 1 µM amounted to 91.7% in [9], 95.5% in assay [10], 61.8% in [11] and 92.5% in assay [13]. In addition, the “% enzyme activity” value in [4] is reported as 66.59%; in assay [5] it was 30.68%; in assay [6] it was 94.35%; in assay [12] it was 101.22%.
